Measured values as given in patent US20120171531A1, “REDOX FLOW BATTERY” (Samsung Electronics Co., Ltd., priority 2010, published 2012).

Test: Viscosity of prepared electrolyte solution, Rheometer (AR2000)
Format: physicochemical
Details: solvent PC
Description: The solubilities of each metal-ligand coordination compound obtained in Preparation Examples 1 through 3 in solvents and viscosity of prepared electrolyte solutions were measured and the results are shown in Table 1. Viscosities were measured using a Rheometer (AR2000).

SMILES	Viscosity (cps)
F[B-](F)(F)F.F[B-](F)(F)F.[Ni+2].c1ccc(-c2ccccn2)nc1.c1ccc(-c2ccccn2)nc1.c1ccc(-c2ccccn2)nc1 [Preparation Example 2, Ni^2+—(bpy)3 [BF4]2]	4.9 cps
F[B-](F)(F)F.F[B-](F)(F)F.[Fe+2].c1ccc(-c2ccccn2)nc1.c1ccc(-c2ccccn2)nc1.c1ccc(-c2ccccn2)nc1 [Preparation Example 1, Fe^2+—(bpy)3 [BF4]2]	4.8 cps
